The results in this text go back to patent publication US20240360178A1, “MACROCYCLIC IMMUNOMODULATORS” (Bristol-Myers Squibb Company, priority 2021, published 2024).

Positions of bridges follow the written chain, without caps; N, C: chain ends. Non-standard residues stand in square brackets, D forms with d. Residues, ends and D or L forms follow the SMILES beside them. ξ: configuration not given here. *: point of attachment. Ala(indol-4-yl) = N[C@@H](Cc1cccc2[nH]ccc12)C(=O)O; Phe(4-COOH) = N[C@@H](Cc1ccc(C(=O)O)cc1)C(=O)O; Bip = N[C@@H](Cc1ccc(-c2ccccc2)cc1)C(=O)O; Phe(3-Me) = Cc1cccc(C[C@H](N)C(=O)O)c1; NMeF = CN[C@@H](Cc1ccccc1)C(=O)O; hArg = N=C(N)NCCCC[C@H](N)C(=O)O; ξW = NC(Cc1c[nH]c2ccccc12)C(=O)O; 4Pal = N[C@@H](Cc1ccncc1)C(=O)O; Cha = N[C@@H](CC1CCCCC1)C(=O)O; dPip = O=C(O)[C@H]1CCCCN1; Carboxymethyl = O=C(O)C*; NMeA = CN[C@@H](C)C(=O)O; Orn = NCCC[C@H](N)C(=O)O; Dab = NCC[C@H](N)C(=O)O; ξV = CC(C)C(N)C(=O)O; Sar = CNCC(=O)O

This test addresses T1, human PD-1 (Jurkat-PD-1 cells) / PE-labeled human PD-L1-Ig (Homo sapiens, UniProt Q15116).
T1 construct: expressed in transfected cells; host or cells: Jurkat cell line over-expressing human PD-1
The test can be described thus: Jurkat-PD-1 Cell Binding High-Content Screening Assay (CBA); Jurkat hPD1-PDL1 assay. Conditions: Jurkat cell line over-expressing human PD-1; PE-labeled PD-L1-Ig 20 nM final; compound incubated 2 hours at 37° C.; read-out: Jurkat HPD1-PDL1 IC50. The essentials: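 Cell binding by imaging: Jurkat line stably over-expressing human PD-1, compound pre-exposure 2 h at 37° C, PE-conjugated PD-L1-Ig 20 nM final, medium DMEM containing 10% FCS.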

T1 sequence (Q15116 25-288): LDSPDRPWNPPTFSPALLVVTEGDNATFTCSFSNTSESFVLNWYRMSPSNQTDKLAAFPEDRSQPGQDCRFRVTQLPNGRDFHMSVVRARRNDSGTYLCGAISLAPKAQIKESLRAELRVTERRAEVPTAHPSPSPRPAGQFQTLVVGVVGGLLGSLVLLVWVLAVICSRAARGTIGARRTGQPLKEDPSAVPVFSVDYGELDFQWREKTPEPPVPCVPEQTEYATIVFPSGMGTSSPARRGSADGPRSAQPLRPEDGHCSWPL

Broadly, the IC50 is the concentration that inhibits the measured activity by half. Turning to `CC(C)C[C@@H]1NC(=O)[C@H](Cc2c[nH]c3ccccc23)NC(=O)[C@H](CC(=O)O)NC(=O)[C@H](Cc2ccc(O)cc2)NC(=O)[C@H](Cc2ccccc2)NC(=O)CSC[C@@H](C(=O)N[C@@H](C)C(N)=O)NC(=O)[C@H](CO)NC(=O)[C@H](C(C)C)NC(=O)[C@H](CC(C)C)NC(=O)[C@H](CC(N)=O)NC(=O)[C@H](Cc2ccccc2)N(C)C(=O)[C@H](C)N(C)C(=O)[C@H](CCCNC(=N)N)NC(=O)[C@H](Cc2ccc(-c3ccccc3)cc2)NC1=O` [Example 1095] ({CH2CO}-FYDWL[Bip]R[NMeA][NMeF]NLVSCA-NH2; thioether N-14), the IC50 was 280 nM.

For `CC(C)C[C@@H]1NC(=O)[C@H](CCCNC(=N)N)NC(=O)[C@H](Cc2ccccc2)N(C)C(=O)[C@H](C)N(C)C(=O)[C@H](CCC(=O)O)NC(=O)[C@H](Cc2ccc(-c3ccccc3)cc2)NC(=O)[C@H](C(C)C)NC(=O)[C@H](Cc2c[nH]c3ccccc23)NC(=O)[C@H](CC(=O)O)NC(=O)[C@H](Cc2ccc(O)cc2)NC(=O)[C@H](Cc2ccccc2)NC(=O)CSC[C@@H](C(=O)NCC(N)=O)NC(=O)[C@H](CO)NC(=O)[C@H](C(C)C)NC1=O` [Example 1214] ({CH2CO}-FYDWV[Bip]E[NMeA][NMeF]RLVSCG-NH2; thioether N-14), the IC50 stood at 60 nM.

On to `CC(C)C[C@@H]1NC(=O)[C@H](Cc2c[nH]c3ccccc23)NC(=O)[C@H](CC(=O)O)NC(=O)[C@H](Cc2ccc(O)cc2)NC(=O)[C@H](Cc2ccncc2)NC(=O)CSC[C@@H](C(=O)N[C@@H](C)C(N)=O)NC(=O)[C@H](CO)NC(=O)[C@H](C(C)C)NC(=O)[C@H](CC(C)C)NC(=O)[C@H](CC(N)=O)NC(=O)[C@H]2CCCN2C(=O)[C@H](C)N(C)C(=O)[C@H](C(C)C)NC(=O)[C@H](Cc2ccc(-c3ccccc3)cc2)NC1=O` [Example 1023] ({CH2CO}-[4Pal]YDWL[Bip]V[NMeA][dP]NLVSCA-NH2; thioether N-14), for which the IC50 stood at 40 nM.

For the molecule `CC(C)C[C@@H]1NC(=O)[C@H](CCCCNC(=N)N)NC(=O)[C@H](Cc2ccccc2)N(C)C(=O)[C@H](C)N(C)C(=O)[C@H](CCCNC(=N)N)NC(=O)[C@H](Cc2ccc(-c3ccccc3)cc2)NC(=O)[C@H](C(C)C)NC(=O)[C@H](Cc2c[nH]c3ccccc23)NC(=O)[C@H](CC(=O)O)NC(=O)[C@H](Cc2ccc(O)cc2)NC(=O)[C@H](Cc2ccccc2)NC(=O)CSC[C@@H](C(=O)NCC(N)=O)NC(=O)[C@H](CO)NC(=O)[C@H](C(C)C)NC1=O` [Example 1279] ({CH2CO}-FYDWV[Bip]R[NMeA][NMeF][hArg]LVSCG-NH2; thioether N-14), the IC50 worked out at 320 nM.

As for `Cc1cccc(C[C@@H]2NC(=O)[C@H](CC(=O)O)NC(=O)[C@H](Cc3ccc(C(=O)O)cc3)NC(=O)[C@H](Cc3ccncc3)NC(=O)CSC[C@@H](C(=O)N[C@@H](C)C(N)=O)NC(=O)[C@H]([C@@H](C)O)NC(=O)[C@H](C(C)C)NC(=O)[C@H](CC3CCCCC3)NC(=O)[C@H](CCN)NC(=O)[C@H](Cc3ccccc3)N(C)C(=O)[C@H](CCCN)NC(=O)[C@H](CCC(=O)O)NC(=O)[C@H](Cc3ccc(-c4ccccc4)cc3)NC(=O)C(C(C)C)NC2=O)c1` (stereo partly drawn) [Example 1444] ({CH2CO}-[4Pal][Phe(4-COOH)]D[Phe(3-Me)][ξV][Bip]E[Orn][NMeF][Dab][Cha]VTCA-NH2; thioether N-14), the half-inhibitory concentration (IC50) turned out to be 50 nM.

For `Cc1cccc(C[C@@H]2NC(=O)[C@H](CC(=O)O)NC(=O)[C@H](Cc3ccc(O)cc3)NC(=O)[C@H](CC(N)=O)NC(=O)CSC[C@@H](C(=O)N[C@@H](C)C(N)=O)NC(=O)[C@H]([C@@H](C)O)NC(=O)[C@H](C(C)C)NC(=O)[C@H](CC3CCCCC3)NC(=O)[C@H](CCN)NC(=O)[C@H](Cc3ccccc3)N(C)C(=O)[C@H](CCCN)NC(=O)[C@H](CCC(=O)O)NC(=O)[C@H](Cc3ccc(-c4ccccc4)cc3)NC(=O)C(C(C)C)NC2=O)c1` (stereo partly drawn) [Example 1447] ({CH2CO}-NYD[Phe(3-Me)][ξV][Bip]E[Orn][NMeF][Dab][Cha]VTCA-NH2; thioether N-14), the IC50 turned out to be 30 nM.

As for `CC(C)C[C@@H]1NC(=O)[C@H](Cc2cccc3[nH]ccc23)NC(=O)[C@H](CC(=O)O)NC(=O)[C@H](Cc2ccc(O)cc2)NC(=O)[C@H](Cc2ccccc2)NC(=O)CSC[C@@H](C(=O)N[C@@H](C)C(N)=O)NC(=O)[C@H](CO)NC(=O)[C@H](C(C)C)NC(=O)[C@H](CC(C)C)NC(=O)[C@H](CC(N)=O)NC(=O)CN(C)C(=O)[C@H](C)N(C)C(=O)[C@H](C(C)C)NC(=O)[C@H](Cc2ccc(-c3ccccc3)cc2)NC1=O` [Example 1124] ({CH2CO}-FYD[Ala(indol-4-yl)]L[Bip]V[NMeA][Sar]NLVSCA-NH2; thioether N-14), the IC50 amounted to 450 nM.

Consider `CC(C)C[C@@H]1NC(=O)C(Cc2c[nH]c3ccccc23)NC(=O)[C@H](CC(=O)O)NC(=O)[C@H](Cc2ccc(O)cc2)NC(=O)[C@H](Cc2ccccc2)NC(=O)CSC[C@@H](C(=O)NCC(N)=O)NC(=O)[C@H](CO)NC(=O)[C@H](C(C)C)NC(=O)[C@H](CC(C)C)NC(=O)[C@H](CCCNC(=N)N)NC(=O)CN(C)C(=O)[C@H](C)N(C)C(=O)[C@H](CCCNC(=N)N)NC(=O)[C@H](Cc2ccc(-c3ccccc3)cc2)NC1=O` (stereo partly drawn) [Example 1231] ({CH2CO}-FYD[ξW]L[Bip]R[NMeA][Sar]RLVSCG-NH2; thioether N-14), for which the IC50 is 900 nM.

For the molecule `CC(C)C[C@@H]1NC(=O)[C@H](Cc2ccccc2)NC(=O)[C@H](CC(=O)O)NC(=O)[C@H](Cc2ccc(O)cc2)NC(=O)[C@H](Cc2ccccc2)NC(=O)CSC[C@@H](C(=O)NCC(N)=O)NC(=O)[C@H](CO)NC(=O)[C@H](C(C)C)NC(=O)[C@H](CC(C)C)NC(=O)[C@H](CC(N)=O)NC(=O)CN(C)C(=O)[C@H](C)N(C)C(=O)[C@H](C(C)C)NC(=O)[C@H](Cc2ccc(-c3ccccc3)cc2)NC1=O` [Example 1088] ({CH2CO}-FYDFL[Bip]V[NMeA][Sar]NLVSCG-NH2; thioether N-14), the IC50 turned out to be 250 nM.

As for `CC(C)C[C@@H]1NC(=O)[C@H](CCCN)NC(=O)[C@H](Cc2ccccc2)N(C)C(=O)[C@H](C)N(C)C(=O)[C@H](CCCNC(=N)N)NC(=O)[C@H](Cc2ccc(-c3ccccc3)cc2)NC(=O)[C@H](C(C)C)NC(=O)[C@H](Cc2c[nH]c3ccccc23)NC(=O)[C@H](CC(=O)O)NC(=O)[C@H](Cc2ccc(O)cc2)NC(=O)[C@H](Cc2ccccc2)NC(=O)CSC[C@@H](C(=O)NCC(N)=O)NC(=O)[C@H](CO)NC(=O)[C@H](C(C)C)NC1=O` [Example 1278] ({CH2CO}-FYDWV[Bip]R[NMeA][NMeF][Orn]LVSCG-NH2; thioether N-14), the IC50 turned out to be 310 nM.

Consider `CC(C)C[C@@H]1NC(=O)[C@H](Cc2c[nH]c3ccccc23)NC(=O)[C@H](CC(=O)O)NC(=O)[C@H](Cc2ccc(O)cc2)NC(=O)[C@H](Cc2ccccc2)NC(=O)CSC[C@@H](C(=O)N[C@@H](C)C(N)=O)NC(=O)[C@H](CO)NC(=O)[C@H](C(C)C)NC(=O)[C@H](CC(C)C)NC(=O)[C@H](CC(N)=O)NC(=O)[C@H]2CCCCN2C(=O)[C@H](C)N(C)C(=O)[C@H](C(C)C)NC(=O)[C@H](Cc2ccc(-c3ccccc3)cc2)NC1=O` [Example 1038] ({CH2CO}-FYDWL[Bip]V[NMeA][dPip]NLVSCA-NH2; thioether N-14), for which the IC50 is 70 nM.

With `CC(C)C[C@@H]1NC(=O)[C@H](Cc2c[nH]c3ccccc23)NC(=O)[C@H](CC(=O)O)NC(=O)[C@H](Cc2ccncc2)NC(=O)[C@H](Cc2ccc(OCC(=O)O)cc2)NC(=O)CSC[C@@H](C(=O)N[C@@H](C)C(N)=O)NC(=O)[C@H](CO)NC(=O)[C@H](C(C)C)NC(=O)[C@H](CC(C)C)NC(=O)[C@H](CC(N)=O)NC(=O)[C@H]2CCCN2C(=O)[C@H](C)N(C)C(=O)[C@H](C(C)C)NC(=O)[C@H](Cc2ccc(-c3ccccc3)cc2)NC1=O` [Example 1435] ({CH2CO}-Y(Carboxymethyl)[4Pal]DWL[Bip]V[NMeA][dP]NLVSCA-NH2; thioether N-14), the half-maximal inhibitory concentration (IC50) is 90 nM.

Regarding `CC(C)C[C@@H]1NC(=O)[C@H](CCN)NC(=O)[C@H](Cc2ccccc2)N(C)C(=O)[C@H](C)N(C)C(=O)[C@H](CCCN)NC(=O)[C@H](Cc2ccc(-c3ccccc3)cc2)NC(=O)[C@H](C(C)C)NC(=O)[C@H](Cc2c[nH]c3ccccc23)NC(=O)[C@H](CC(=O)O)NC(=O)[C@H](Cc2ccc(O)cc2)NC(=O)[C@H](Cc2ccccc2)NC(=O)CSC[C@@H](C(=O)N[C@@H](C)C(N)=O)NC(=O)[C@H]([C@@H](C)O)NC(=O)[C@H](C(C)C)NC1=O` [Example 1341] ({CH2CO}-FYDWV[Bip][Orn][NMeA][NMeF][Dab]LVTCA-NH2; thioether N-14), the IC50 is 200 nM.

With `CC(C)C[C@@H]1NC(=O)[C@H](Cc2c[nH]c3ccccc23)NC(=O)[C@H](CC(=O)O)NC(=O)[C@H](Cc2ccc(O)cc2)NC(=O)[C@H](Cc2ccccc2)NC(=O)CSC[C@@H](C(=O)NCC(N)=O)NC(=O)[C@H](CO)NC(=O)[C@H](C(C)C)NC(=O)[C@H](CC(C)C)NC(=O)[C@H](CCCNC(=N)N)NC(=O)[C@H](Cc2ccccc2)N(C)C(=O)[C@H](C)N(C)C(=O)[C@H](CCCNC(=N)N)NC(=O)[C@H](Cc2ccc(-c3ccccc3)cc2)NC1=O` [Example 1327] ({CH2CO}-FYDWL[Bip]R[NMeA][NMeF]RLVSCG-NH2; thioether N-14), the IC50 stood at 120 nM.

On to `CC(C)C[C@@H]1NC(=O)[C@H](CCCNC(=N)N)NC(=O)[C@H](Cc2ccccc2)N(C)C(=O)[C@H](C)N(C)C(=O)[C@H](CCCNC(=N)N)NC(=O)[C@H](Cc2ccc(-c3ccccc3)cc2)NC(=O)[C@H](C(C)C)NC(=O)[C@H](Cc2c[nH]c3ccccc23)NC(=O)[C@H](CC(=O)O)NC(=O)[C@H](Cc2ccc(O)cc2)NC(=O)[C@H](CC(N)=O)NC(=O)CSC[C@@H](C(=O)N[C@@H](C)C(N)=O)NC(=O)[C@H]([C@@H](C)O)NC(=O)[C@H](C(C)C)NC1=O` [Example 1318] ({CH2CO}-NYDWV[Bip]R[NMeA][NMeF]RLVTCA-NH2; thioether N-14), for which the IC50 turned out to be 380 nM.
